The record followed here is US7037644B1, “Means and methods for monitoring non-nucleoside reverse transcriptase inhibitor antiretroviral therapy and guiding therapeutic decisions in the treatment of HIV/AIDS” (ViroLogic, Inc., priority 1998, dated 2006).

Each structure is given as a SMILES string. Entries after “also recorded” stand apart in the source; their conditions may differ.

In assay [1] the test system is K103N and Y181C double mutant. The experiment in a line: Phenotypic susceptibility assay (site directed mutant RTV). The conditions noted are these: FIG. 5. In kind it is cell-based, HIV-1. The source says:
Phenotypic drug susceptibility and resistance profile of site directed reverse transcriptase mutants.
(§1) The resistance test vectors containing a functional luciferase gene cassette were constructed and host cells were transfected with the resistance test vector DNA. The resistant test vectors contained patient-derived reverse transcriptase and protease sequences that were either susceptible or resistant to the antiretroviral agents, such as nucleoside reverse transcriptase inhibitors, non-nucleoside reverse transcriptase inhibitors and protease inhibitors. […] The IC50 values were determined by plotting percent drug inhibition vs. log10 drug concentration.
(§2) Host cells were seeded in 10-cm-diameter dishes and were transfected several days after plating with resistance test vector plasmid DNA and the envelope expression vector. […] HIV capsid protein (p24) levels in the harvested cell culture media were determined by an EIA method as described by the manufacturer (SIAC; Frederick, Md.). […] The inhibitory effect of the drug was determined using the following equation: % luciferase inhibition=1−(RLUluc [drug]÷RLUluc)×100 where RLUluc [drug] is the relative light unit of luciferase activity in infected cells in the presence of drug and RLUluc is the Relative Light Unit of luciferase activity in infected cells in the absence of drug. […]

The subject of assay [2] is RTV-1057, patient 98-1057 (RT A98G, Y181C). The assay is described as follows: Phenotypic susceptibility assay (patient RTV). In kind it is cell-based, HIV-1. Particulars: patient RTV pool. The method, then:
as §1, §2

In another assay the test system is P225H-RTV. The assay is described as follows: Phenotypic susceptibility assay (site directed mutant RTV). In kind it is cell-based, HIV-1. The conditions noted are these: P225H alone vs wild type control RTV. The text has this: The resistance test vectors containing a functional luciferase gene cassette were constructed and host cells were transfected with the resistance test vector DNA. The resistant test vectors contained patient-derived reverse transcriptase and protease sequences that were either susceptible or resistant to the antiretroviral agents, such as nucleoside reverse transcriptase inhibitors, non-nucleoside reverse transcriptase inhibitors and protease inhibitors. The resistance test vector viral particles produced by transfecting the resistance test vector DNA into host cells, either in the presence or absence of protease inhibitors, were used to infect target host cells grown either in the absence of NRTI or NNRTI or in the presence of increasing concentrations of the drug. The amount of luciferase activity produced in infected target host cells in the presence of drug was compared to the amount of luciferase produced in infected target host cells in the absence of drug. Drug resistance was measured as the amount of drug required to inhibit by 50% the luciferase activity detected in the absence of drug (inhibitory concentration 50%, IC50). The IC50 values were determined by plotting percent drug inhibition vs. log10 drug concentration.
Host cells were seeded in 10-cm-diameter dishes and were transfected several days after plating with resistance test vector plasmid DNA and the envelope expression vector. Transfections were performed using a calcium-phosphate precipitation procedure. The cell culture media containing the DNA precipitate was replaced with fresh medium, from one to 24 hours, after transfection. Cell culture media containing resistance test vector viral particles was harvested one to four days after transfection and was passed through a […] filter before being stored at […]. HIV capsid protein (p24) levels in the harvested cell culture media were determined by an EIA method as described by the manufacturer (SIAC; Frederick, Md.). Before infection, target cells (293 and 293/T) were plated in cell culture media. Control infections were performed using cell culture media from mock transfections (no DNA) or transfections containing the resistance test vector plasmid DNA without the envelope expression plasmid. One to three or more days after infection the media was removed and cell lysis buffer (Promega) was added to each well. Cell lysates were assayed for luciferase activity (FIG. 3). The inhibitory effect of the drug was determined using the following equation: % luciferase inhibition=1−(RLUluc [drug]÷RLUluc)×100 where RLUluc [drug] is the relative light unit of luciferase activity in infected cells in the presence of drug and RLUluc is the Relative Light Unit of luciferase activity in infected cells in the absence of drug. IC50 values were obtained from the sigmoidal curves that were generated from the data by plotting the percent inhibition of luciferase activity vs. the log10 drug concentration. The drug inhibition curves are shown in (FIG. 3).
Genotypic changes that are observed to correlate with changes in phenotypic patterns of drug susceptibility are evaluated by construction of resistance test vectors containing the specific mutation on a defined, wild-type (drug susceptible) genetic background. Mutations may be incorporated alone and/or in combination with other known drug resistance mutations that are thought to modulate the susceptibility of HIV to a certain drug or class of drugs. Mutations are introduced into the resistance test vector through any of the widely known methods for site-directed mutagenesis. In one embodiment of this invention the mega-primer PCR method for site-directed mutagenesis is used. […]

Assay [3] concerns RTV-955, patient 98-955 (RT K101E, K103N, Y181C, G190A mixtures). The experiment in a line: Phenotypic susceptibility assay (patient RTV). Particulars: patient RTV pool. The class given is cell-based, HIV-1. The method, then: as §1, §2
In assay [4] the test system is patient 780 virus (RT K103N, P225H). The assay is described as follows: Phenotypic susceptibility assay (patient virus). In kind it is cell-based, HIV. The conditions noted are these: patient 780, FIGS. 8D-8F.
Source text: FIGS. 8D, 8E, and 8F. Phenotypic Drug Susceptibility and Resistance Profile: Patients 780. This is a second example of the third pattern of NNRTI susceptibility/resistance. […] This pattern is characterized by a larger reduction of nevirapine suseptibility compared to the reduction of delavirdine susceptibility.
The resistance test vectors containing a functional luciferase gene cassette were constructed and host cells were transfected with the resistance test vector DNA. […] The IC50 values were determined by plotting percent drug inhibition vs. log10 drug concentration.
as §2

For assay [5], the system named is RTV-675, patient 98-675 (RT A98G). The experiment in a line: Phenotypic susceptibility assay (patient RTV). The class given is cell-based, HIV-1. The conditions noted are these: patient RTV pool. How it is done: as §1, §2

For the compound `CC(C)Nc1cccnc1N1CCN(C(=O)c2cc3cc(NS(C)(=O)=O)ccc3[nH]2)CC1` [delavirdine], the figures for the “change in susceptibility” value (in assay [1]; in the assay with P225H-RTV; in assay [4]) were “further increase in resistance”, “more susceptible; also recorded: increase; also recorded: increase3s susceptibility” and “reduced susceptibility”, respectively. The “decrease in susceptibility (fold, IC50)” value was determined as 35 fold in assay [2], 4 fold in assay [3] and 2.1 fold in assay [5].

For `Cc1ccnc2c1NC(=O)c1cccnc1N2C1CC1` [nevirapine], the “change in susceptibility” value is on record as “further increase in resistance” in assay [1], “No significant change; also recorded: little or no change” with P225H-RTV and “reduced susceptibility” in assay [4]. Besides, the “decrease in susceptibility (fold, IC50)” value in assay [2] stood at 610 fold; in assay [3], 530 fold; in assay [5], 6 fold.
